Tests used:
EAA release = assay: Glutamate (EAA) release measured by microdialysis during and after ischemia (rMCAo); assay type: in vivo, rat; conditions: 5 mg/kg i.v. before rMCAO
recombinant nNOS = recombinant nNOS (Homo sapiens, UniProt P29475); conditions: recombinant nNOS and calcium dependent NOS activity in brain homogenates; from Osuka et al., 2001; cited from earlier work
lipid peroxidation = assay: Lipid peroxidation in rat synaptosomal preparation (TBA-reactive substances); assay type: biochemical; conditions: initiated by 2.5 μM Fe2SO4 and 500 μM ascorbic acid; rat synaptosomes
Procedure: Lipid peroxides in sedimented synaptosomal membranes were analyzed by 2-thiobarbituric acid (TBA) with the TBA-reactive substances determined spectrophotometrically (Ohkawa et al., 1979). *P<0.05

permanent MCAo = assay: Infarct volume by TTC staining after permanent MCAo; assay type: in vivo, rat; conditions: 20 mg/kg, maintained by IP injections every 12 h
nitrotyrosine = assay: Nitrotyrosine production after rMCAo, Western blot of cerebral cortex extracts; assay type: in vivo, rat; conditions: 5 mg/kg; 68 kDa protein at 24 hours after rMCAo; P<0.05 compared to vehicle
[1] = tested on: volume-regulated anion channels (VRACs); assay: Blockade of volume-regulated anion channels in vitro
reversible MCAo = assay: Infarct volume by TTC staining after reversible MCAo (two hours of MCAo, then reperfusion); assay type: in vivo, rat; conditions: for Mean volume of the infarct: ±SEM, p<0.05

recombinant nNOS, sequence (P29475 whole entry, species assumed): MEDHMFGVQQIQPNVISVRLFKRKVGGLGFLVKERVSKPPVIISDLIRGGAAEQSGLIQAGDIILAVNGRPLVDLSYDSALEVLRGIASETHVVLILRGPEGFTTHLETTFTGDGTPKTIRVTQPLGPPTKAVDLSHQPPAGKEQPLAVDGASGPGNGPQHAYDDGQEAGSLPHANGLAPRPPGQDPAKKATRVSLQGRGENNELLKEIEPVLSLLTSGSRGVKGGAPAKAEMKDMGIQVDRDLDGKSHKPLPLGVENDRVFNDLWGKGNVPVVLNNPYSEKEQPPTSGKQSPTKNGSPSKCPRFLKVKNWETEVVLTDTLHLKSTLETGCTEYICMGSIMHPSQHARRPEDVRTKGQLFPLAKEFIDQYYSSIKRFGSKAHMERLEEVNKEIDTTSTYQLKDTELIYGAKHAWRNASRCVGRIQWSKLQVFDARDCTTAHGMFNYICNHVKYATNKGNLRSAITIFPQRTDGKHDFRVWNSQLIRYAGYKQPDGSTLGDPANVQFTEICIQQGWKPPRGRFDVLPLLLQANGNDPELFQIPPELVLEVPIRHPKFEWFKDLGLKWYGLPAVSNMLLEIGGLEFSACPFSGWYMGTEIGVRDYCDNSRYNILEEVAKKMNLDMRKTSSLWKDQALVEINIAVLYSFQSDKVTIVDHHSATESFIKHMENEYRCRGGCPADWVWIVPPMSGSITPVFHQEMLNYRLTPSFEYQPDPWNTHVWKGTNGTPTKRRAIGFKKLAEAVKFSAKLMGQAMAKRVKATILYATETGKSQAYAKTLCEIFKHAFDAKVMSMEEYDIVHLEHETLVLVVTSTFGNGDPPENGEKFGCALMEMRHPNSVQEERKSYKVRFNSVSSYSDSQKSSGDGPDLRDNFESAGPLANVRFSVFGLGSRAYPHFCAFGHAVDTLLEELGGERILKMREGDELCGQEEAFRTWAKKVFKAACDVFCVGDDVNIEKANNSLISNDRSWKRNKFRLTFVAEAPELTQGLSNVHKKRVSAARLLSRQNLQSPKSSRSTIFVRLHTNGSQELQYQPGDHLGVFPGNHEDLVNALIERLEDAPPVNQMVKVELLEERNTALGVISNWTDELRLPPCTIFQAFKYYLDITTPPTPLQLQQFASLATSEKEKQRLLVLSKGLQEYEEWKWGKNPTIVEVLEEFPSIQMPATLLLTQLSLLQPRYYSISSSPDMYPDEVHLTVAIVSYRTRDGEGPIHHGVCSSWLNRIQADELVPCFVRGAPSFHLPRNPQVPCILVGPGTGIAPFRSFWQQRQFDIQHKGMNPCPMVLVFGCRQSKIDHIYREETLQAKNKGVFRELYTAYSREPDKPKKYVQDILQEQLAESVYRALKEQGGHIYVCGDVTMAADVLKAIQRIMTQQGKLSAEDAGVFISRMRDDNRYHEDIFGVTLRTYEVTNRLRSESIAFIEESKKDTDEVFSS

In the case of `CCC(=C(c1ccccc1)c1ccc(OCCN(C)C)cc1)c1ccccc1` (stereo in doubt) [tamoxifen, (Z)-2-[4-(1,2-diphenyl-1-butenyl)phenoxy]-N,N-dimethylethanamine], the Contralateral glutamate levels (EAA release) is given as “no effect”, the “EAA (glutamate) release during ischemia” value (EAA release) is given as “reduces EAA release” and the nNOS activity (recombinant nNOS) is given as “inhibits nNOS”. For the same compound, the Lipid peroxidation (lipid peroxidation) was “inhibits lipid peroxidation”, the Infarct volume (permanent MCAo) was “reduces infarct volumes” and the “Nitrotyrosine levels after rMCAo” value (nitrotyrosine) was “reduces nitrotyrosine levels”. The VRAC blockade [1] was “potently blocks VRACs”, the Infarct size (reversible MCAo; tamoxifen at two and four hours after the infarct, reperfusion) was “essentially identical to the mean for untreated control animals” and the “Mean volume of the infarct” value (reversible MCAo; tamoxifen given 1 hour after reperfusing after two hours of MCAo, TTC staining 72 h) was 33±13 mm^3. The “Mean volume of the infarct” value (reversible MCAo; tamoxifen pretreatment, TTC staining 72 h after MCAo) was 41±21 mm^3.

From patent publication US20030032676A1, “Drugs for treatment of cerebral injury and methods of use thereof” (priority 2001, published 2003)
